By IC50 is commonly meant the point on the concentration scale where inhibition reaches its midpoint.

Results on 18 compounds are retold here after patent publication US12661415B2, “Isoindolinone compounds and imaging agents for imaging Huntingtin protein” (CHDI Foundation, Inc., priority 2021, dated 2026).

A short description of data set [1]: Unbound brain fraction (fu,brain) in mouse brain by equilibrium dialysis. Type of data set: in vitro ADME. The note with it: 20% mouse brain homogenate, 5 μM, equilibrium dialysis 6 h at 37° C., average of triplicate. How it is done: Compounds were tested for unbounded brain fraction (or free fraction in brain, fu,brain). It is an accepted standard in the CNS PET imaging field that compounds with low unbound fraction in brain (<5%) likely have high non-specific binding background that is undesirable for the detection of target binding. As a result, fu,brain is an important property in the design of PET ligands for brain imaging [see Zhang et al., Design and selection parameters to accelerate the discovery of novel central nervous system positron emission tomography (PET) ligands and their application in the development of a novel phosphodiesterase 2A PET ligand. J Med Chem 2013, 56 (11), 4568-79; Liu et al., Imaging Mutant Huntingtin Aggregates: Development of a Potential PET Ligand. J Med Chem 2020, 63 (15), 8608-8633].
Determining fu,brain in Mouse Brain by Equilibrium Dialysis. Dialysis membranes (12-14 kDa) (HTDialysis, Connecticut) were soaked in phosphate buffer (10 mM potassium phosphate and 0.8% sodium chloride buffer, pH 7.4 at 37° C.) for a minimum of 1 h, at this time ethanol was added (final concentration of 20% v/v) and membranes continued to soak for 30 min Mouse brain tissue was diluted in phosphate buffer in a […] (w/v) and homogenised using a Precellys 24 (Stretton Scientific, UK) to achieve a final concentration of 20% brain homogenate.
Test compounds prepared as DMSO stocks at 0.5 mM are diluted into brain homogenate to achieve 5 μM final substrate concentration (1% DMSO) and a t=0 sample was prepared by sampling 50 μL of into 400 μL of quench solution (Acetonitrile containing 0.1% formic acid and sulfisoxazole/tolbutamide/imipramine/labetalol 200 nM). Samples were matrix matched with the addition of 50 μL of assay buffer. The HTDialysis Teflon blocks (HTDialysis, Connecticut) were assembled with pre-soaked membrane between each receiver and donor well and clamped in the stainless steel pressure plate (HTDialysis, Connecticut). The lower compartment (acceptor side) was dosed with 120 μL of buffer and the upper compartment (donor side) was dosed with 120 μL of compound in homogenate. All test compounds and controls were completed in triplicate. The HT dialysis plate was sealed and incubated for 6 h at 37° C. shaking at 250 rpm.
Following the incubation, 50 μL of sample was removed from all donor and acceptor wells and transferred into a quench plate containing 400 μL of quench solution. All samples were matrix matched with 50 μL of the alternate blank matrix. Analytical samples were diluted 1:1 with water using the Janus Robot and analysed by LC-MS/MS.
Peak areas of donor and acceptor compartments were compared to determine percent unbound (% fu) and the average of triplicate measurements was reported. Reference T0 sample was used to calculate sample recovery (%). Control compounds were compared with historic and literature values to ensure assay functionality.
For orientation: In equilibrium dialysis only unbound substance equilibrates across the membrane.

The target of data set [2] is T1, MBP-HTT(1-89)Q46-His(6×) (Exon1-Q46) protein aggregates (Homo sapiens, UniProt P42858, INS38QQQQQQQQQQQQQQQQQQQQQQQQQ).
T1 construct: MBP-HTT(1-89)Q46-His(6×); His(6×) (C); made in house
As to the kind of experiment: Exon1-Q46 radioligand binding assay (RBA). As to conditions: aggregated Exon1-Q46 1 μM; 0.3 nM ligand [3H3-methyl]-5-((5-methoxypyridin-2-yl)methoxy)-2-(pyrazin-2-yl)benzo[d]oxazole; 60 minutes at 37° C.; read-out: Potency Range (IC50). The method, then: Exon1-Q46 Radioligand Binding Assay
For radioligand binding assays (RBA) MBP-HTT(1-89)Q46-His(6×) (“Exon1-Q46”) protein was generated based on a previous publication (Scherzinger et al. Cell, Vol. 90, 549-558, Aug. 8, 1997). For experiments 30 μM MBP-Exon1-Q46 was incubated with 150 μg/mL thrombin in assay buffer (150 mM NaCl, 50 mM Tris pH 8.0) and 2 mM CaCl2 for 16 hours at 37° C. Aggregated Exon1-Q46 was pelleted by centrifugation for 5 minutes at 13,000 rpm in a bench top centrifuge and re-dissolved in the same volume of assay buffer. Test compounds were prepared by titration in DMSO at 11 concentrations from 63 μM to 2 nM. For the RBA, Exon1-Q46 protein aggregates and test compounds were pre-incubated in assay buffer for 20 minutes at room temperature, in 100 μL/well in a 96-well plate (pp, round bottom). Then, ligand was added in 50 μL/well and incubated for 60 minutes at 37° C. Final assay concentrations were 1 μM to 30 pM test compound, 1 μM Exon1-Q46 protein (equivalent monomer concentration) and 0.3 nM ligand [^3H3-methyl]-5-((5-methoxypyridin-2-yl)methoxy)-2-(pyrazin-2-yl)benzo[d]oxazole. Samples were transferred onto GF/B filter plates and washed 2× with 200 μL PBS using a Filtermate Harvester. After drying filter plates for 1 hour at 55° C., the back of the plates were sealed with foil and 30 μL/well scintillation fluid (Packard MicroScint 40) added, incubated for 15 minutes in the dark and counted in a MicroBeta reader. For analysis, replicate data from independent assay plates were normalized towards 0% and 100% inhibition using control wells of vehicle (0% inhibition) and 1 μM unlabelled [^3H3-methyl]-5-((5-methoxypyridin-2-yl)methoxy)-2-(pyrazin-2-yl)benzo[d]oxazole (100% inhibition). IC50 values were determined with a sigmoidal inhibition model with four variables (top, bottom, slope, IC50) in a global fit using the normalized replicate data.
The results for various example compounds were as provided in the table below (+++<100 nM; ++100−500 nM; +>500 nM; ND: not determined): […]

T1 sequence (P42858 with tags, fused parts or gaps with the stated changes): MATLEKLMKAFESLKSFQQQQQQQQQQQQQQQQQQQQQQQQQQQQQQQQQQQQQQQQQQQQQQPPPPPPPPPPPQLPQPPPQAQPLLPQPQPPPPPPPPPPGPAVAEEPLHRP

With `Cn1nc(N2Cc3cc(OCc4ccc(OCF)cn4)ccc3C2=O)ccc1=O` [Compound 2-2, 5-{[5-(Fluoromethoxy)pyridin-2-yl]methoxy}-2-(1-methyl-6-oxo-1,6-dihydropyridazin-3-yl)-2,3-dihydro-1H-isoindol-1-one], the “Mean Free Brain Fraction (%)” value in data set [1] was found to be 12.7%. Also, the concentration for half-maximal inhibition (IC50) in data set [2] is less than 100 nM.
On to `Cn1nc(N2Cc3cc(OCc4cc(Cl)c(F)cn4)ccc3C2=O)ccc1=O` [Compound 2-3, 5-[(4-Chloro-5-fluoropyridin-2-yl)methoxy]-2-(1-methyl-6-oxo-1,6-dihydropyridazin-3-yl)-2,3-dihydro-1H-isoindol-1-one], for which the “Mean Free Brain Fraction (%)” value in data set [1] was 2.7%. For the same compound, the IC50 in data set [2] is less than 100 nM.
As to `COc1cc(COc2ccc3c(c2)CN(c2ccc(=O)n(C)n2)C3=O)ncc1F` [Compound 3-1, 5-[(5-Fluoro-4-methoxypyridin-2-yl)methoxy]-2-(1-methyl-6-oxo-1,6-di-hydropyridazin-3-yl)-2,3-dihydro-1H-isoindol-1-one], the “Mean Free Brain Fraction (%)” value in data set [1] amounted to 9.7%. For the same compound, the IC50 in data set [2] was less than 100 nM.
In the case of `COc1ccc(COc2ccc3c(c2)CN(c2ccc(=O)[nH]n2)C3=O)nc1` [Compound 6-1, 5-[(5-Methoxypyridin-2-yl)methoxy]-2-(6-oxo-1,6-dihydropyridazin-3-yl)-2,3-dihydro-1H-isoindol-1-one], the “Mean Free Brain Fraction (%)” value in data set [1] amounted to 11.3%. In addition, the half-inhibitory concentration (IC50) in data set [2] is less than 100 nM.
The like results for `COc1ccc(COc2ccc3c(c2)CN(c2ccc(=O)n(CF)n2)C3=O)nc1` [Compound 8-1, 2-(1-(Fluoromethyl)-6-oxo-1,6-dihydropyridazin-3-yl)-5-((5-methoxypyridin-2-yl)methoxy)isoindolin-1-one] were, in that order, 7.4% and less than 100 nM.
On to `COc1ccc(COc2ccc3c(c2)CN(c2ccc(=O)n(CCF)n2)C3=O)nc1` [Compound 8-2, 2-[1-(2-Fluoroethyl)-6-oxo-1,6-dihydropyridazin-3-yl]-5-[(5-methoxypyridin-2-yl)methoxy]-2,3-dihydro-1H-isoindol-1-one], for which, in data set [1], the “Mean Free Brain Fraction (%)” value is 9.0%. The concentration for half-maximal inhibition (IC50) in data set [2] is less than 100 nM.
Taken in the same sequence, the figures for `O=C1c2ccc(OCc3ccc(F)cn3)cc2CN1c1ccc(=O)[nH]n1` [Compound 9-1, 5-[(5-Fluoro-2-pyridyl)methoxy]-2-(6-oxo-1H-pyridazin-3-yl)isoindolin-1-one] were 6.7% and less than 100 nM.
In the case of `COc1cc(COc2ccc3c(c2)CN(c2ccc(=O)[nH]n2)C3=O)ncc1F` [Compound 9-3, 5-((5-Fluoro-4-methoxypyridin-2-yl)methoxy)-2-(6-oxo-1,6-dihydropyridazin-3-yl)isoindolin-1-one], in data set [1], the “Mean Free Brain Fraction (%)” value was determined as 5.2%. The IC50 in data set [2] is less than 100 nM.
Taken in the same sequence, the figures for `COc1ccc(COc2cc(F)c3c(c2)CN(c2ccc(=O)n(C)n2)C3=O)nc1` [Compound 10-1, 7-Fluoro-5-[(5-methoxypyridin-2-yl)methoxy]-2-(1-methyl-6-oxo-1,6-di-hydropyridazin-3-yl)-2,3-dihydro-1H-isoindol-1-one] were 14.3% and less than 100 nM.
Take `COc1ccc(COc2cc(F)c3c(c2)CN(c2ccc(=O)[nH]n2)C3=O)nc1` [Compound 10-2, 7-Fluoro-5-[(5-methoxypyridin-2-yl)methoxy]-2-(6-oxo-1,6-dihydropyridazin-3-yl)-2,3-dihydro-1H-isoindol-1-one]: the “Mean Free Brain Fraction (%)” value in data set [1] was found to be 9.5%. Besides, the IC50 in data set [2] was less than 100 nM.
Consider `COc1ccc2c(c1)CN(c1ccc(OCc3cccnc3)nc1)C2=O` [Compound 11-1, 5-Methoxy-2-{6-[(pyridin-3-yl)methoxy]pyridin-3-yl}-2,3-dihydro-1H-isoindol-1-one], for which the “Mean Free Brain Fraction (%)” value in data set [1] was determined as 3.2%. Further, in data set [2], the IC50 is less than 100 nM.
The like results for `COc1ccc(COc2cc3c(cc2F)C(=O)N(c2ccc(=O)n(C)n2)C3)nc1` [Compound 12-1, 6-Fluoro-5-[(5-methoxypyridin-2-yl)methoxy]-2-(1-methyl-6-oxo-1,6-dihydropyridazin-3-yl)-2,3-dihydro-1H-isoindol-1-one] were, in that order, 7.1% and less than 100 nM.
With `COc1ccc(COc2ccc3c(c2F)CN(c2ccc(=O)n(C)n2)C3=O)nc1` [Compound 12-2, 4-Fluoro-5-[(5-methoxypyridin-2-yl)methoxy]-2-(1-methyl-6-oxo-1,6-dihydropyridazin-3-yl)-2,3-dihydro-1H-isoindol-1-one], the “Mean Free Brain Fraction (%)” value in data set [1] is reported as 5.3%. Moreover, the half-inhibitory concentration (IC50) in data set [2] was less than 100 nM.
Taken in the same sequence, the figures for `COc1ccc(COc2cc(F)c3c(c2)C(=O)N(c2ccc(=O)n(C)n2)C3)nc1` [Compound 12-3, 4-Fluoro-6-[(5-methoxypyridin-2-yl)methoxy]-2-(1-methyl-6-oxo-1,6-dihydropyridazin-3-yl)-2,3-dihydro-1H-isoindol-1-one] were 5.4% and less than 100 nM.
`COc1ccc(COc2cc3c(cc2F)CN(c2ccc(=O)n(C)n2)C3=O)nc1` [Compound 12-4, 5-Fluoro-6-[(5-methoxypyridin-2-yl)methoxy]-2-(1-methyl-6-oxo-1,6-dihydropyridazin-3-yl)-2,3-dihydro-1H-isoindol-1-one]: the “Mean Free Brain Fraction (%)” value in data set [1] was 9.8%. In data set [2], the 50% inhibitory concentration (IC50) is less than 100 nM.
In the case of `COc1ccc(COc2cnc3c(c2)CN(c2ccc(=O)n(C)n2)C3=O)nc1` [Compound 12-5, 6-{3-[(5-Methoxypyridin-2-yl)methoxy]-7-oxo-5H,6H,7H-pyrrolo[3,4-b]pyridin-6-yl}-2-methyl-2,3-dihydropyridazin-3-one], the “Mean Free Brain Fraction (%)” value in data set [1] is reported as 37.0%. In addition, the half-maximal inhibitory concentration (IC50) in data set [2] is less than 100 nM.
The like results for `Cn1nc(N2Cc3cc(OCc4ccc(OCCF)cn4)cnc3C2=O)ccc1=O` [Compound 12-6, 6-(3-{[5-(2-Fluoroethoxy)pyridin-2-yl]methoxy}-7-oxo-5H,6H,7H-pyrrolo[3,4-b]pyridin-6-yl)-2-methyl-2,3-dihydropyridazin-3-one] were, in that order, 50.0% and less than 100 nM.
The like results for `Cn1nc(N2Cc3cc(OCc4ccc(F)cn4)cnc3C2=O)ccc1=O` [Compound 12-7, 6-{3-[(5-Fluoropyridin-2-yl)methoxy]-7-oxo-5H,6H,7H-pyrrolo[3,4-b]pyridin-6-yl}-2-methyl-2,3-dihydropyridazin-3-one] were, in that order, 67.8% and less than 100 nM.
